This passage reports MIC results from ChEMBL document CHEMBL5506059, “Cyanomethylquinolones as a New Class of Potential Multitargeting Broad-Spectrum Antibacterial Agents” (J Med Chem, 2024).

Holding throughout (format): functional
Assay [1] concerns Staphylococcus aureus. The experiment in a line: Antibacterial activity against methicillin resistant Staphylococcus aureus clinical isolate assessed as inhibition of bacterial growth incubated for 24 hrs.
Assay [2] concerns Staphylococcus aureus. The experiment in a line: Antibacterial activity against Staphylococcus aureus clinical isolate assessed as inhibition of bacterial growth incubated for 24 hrs.
Assay [3] has as its system Staphylococcus aureus. Kind of assay: Antibacterial activity against Staphylococcus aureus ATCC 25923 assessed as inhibition of bacterial growth incubated for 24 hrs.
For assay [4], the system named is Staphylococcus aureus. Kind of assay: Antibacterial activity against Staphylococcus aureus ATCC 29213 assessed as inhibition of bacterial growth incubated for 24 hrs.
The next assay concerns Enterococcus faecalis. The experiment in a line: Antibacterial activity against Enterococcus faecalis clinical isolate assessed as inhibition of bacterial growth incubated for 24 hrs.
Another assay concerns Klebsiella pneumoniae. The experiment in a line: Antibacterial activity against Klebsiella pneumoniae clinical isolate assessed as inhibition of bacterial growth incubated for 24 hrs.
Assay [5] has as its system Escherichia coli. The experiment in a line: Antibacterial activity against Escherichia coli clinical isolate assessed as inhibition of bacterial growth incubated for 24 hrs.
Assay [6] concerns Escherichia coli. The experiment in a line: Antibacterial activity against Escherichia coli ATCC 25922 assessed as inhibition of bacterial growth incubated for 24 hrs.
Assay [7] deals with Pseudomonas aeruginosa. Kind of assay: Antibacterial activity against Pseudomonas aeruginosa clinical isolate assessed as inhibition of bacterial growth incubated for 24 hrs.
The subject of assay [8] is Pseudomonas aeruginosa. The experiment in a line: Antibacterial activity against Pseudomonas aeruginosa ATCC 27853 assessed as inhibition of bacterial growth incubated for 24 hrs.
A further assay deals with Acinetobacter baumannii. The experiment in a line: Antibacterial activity against Acinetobacter baumannii clinical isolate assessed as inhibition of bacterial growth incubated for 24 hrs.

Structures are written as SMILES. In brackets after ≈: the same amount, converted by molar mass.

A word on the MIC: it is the lowest concentration that inhibits growth of the organism. With `N#CCc1cc2c(cc1F)c(=O)c(C(=O)O)cn2CC1CC1`, the MIC with Staphylococcus aureus [1] was 0.5 µg/mL (≈ 1.67 µM); with Staphylococcus aureus [2], 256 µg/mL (≈ 853 µM); in the assay on Staphylococcus aureus [3], 0.25 µg/mL (≈ 0.833 µM); in the assay with Staphylococcus aureus [4], 1 µg/mL (≈ 3.33 µM); in the assay on Enterococcus faecalis it was 64 µg/mL (≈ 213 µM); in the assay on Klebsiella pneumoniae, 2 µg/mL (≈ 6.66 µM). Also, the MIC was determined as 1 µg/mL (≈ 3.33 µM) with Escherichia coli [5]; 0.25 µg/mL (≈ 0.833 µM) in the assay on Escherichia coli [6]; 0.25 µg/mL (≈ 0.833 µM) in the assay with Pseudomonas aeruginosa [7]; 1 µg/mL (≈ 3.33 µM) with Pseudomonas aeruginosa [8]; 0.25 µg/mL (≈ 0.833 µM) in the assay on Acinetobacter baumannii.
Regarding `N#CCc1cc2c(cc1F)c(=O)c(C(=O)O)cn2Cc1ccc(C(F)(F)F)cc1`, the MIC in the assay on Staphylococcus aureus [1] was found to be 16 µg/mL (≈ 39.6 µM); with Staphylococcus aureus [2], 8 µg/mL (≈ 19.8 µM); in the assay on Staphylococcus aureus [3], 2 µg/mL (≈ 4.95 µM); in the assay with Staphylococcus aureus [4] it was 4 µg/mL (≈ 9.89 µM); in the assay with Enterococcus faecalis, 0.5 µg/mL (≈ 1.24 µM); with Klebsiella pneumoniae, 64 µg/mL (≈ 158 µM). The minimum inhibitory concentration (MIC) with Escherichia coli [5] was found to be 256 µg/mL (≈ 633 µM); in the assay with Escherichia coli [6], 8 µg/mL (≈ 19.8 µM); in the assay on Pseudomonas aeruginosa [7], 16 µg/mL (≈ 39.6 µM); in the assay on Pseudomonas aeruginosa [8] it was 8 µg/mL (≈ 19.8 µM); in the assay with Acinetobacter baumannii, 64 µg/mL (≈ 158 µM).
For `CCCCCn1cc(C(=O)O)c(=O)c2cc(F)c(CC#N)cc21`, the MIC in the assay with Staphylococcus aureus [1] came out at 0.5 µg/mL (≈ 1.58 µM); in the assay on Staphylococcus aureus [2] it was 256 µg/mL (≈ 809 µM); in the assay on Staphylococcus aureus [3], 0.25 µg/mL (≈ 0.79 µM); in the assay on Staphylococcus aureus [4], 8 µg/mL (≈ 25.3 µM); in the assay on Enterococcus faecalis it was 256 µg/mL (≈ 809 µM); in the assay on Klebsiella pneumoniae, 1 µg/mL (≈ 3.16 µM). Besides, the MIC was 16 µg/mL (≈ 50.6 µM) in the assay with Escherichia coli [5]; 0.25 µg/mL (≈ 0.79 µM) in the assay with Escherichia coli [6]; 1 µg/mL (≈ 3.16 µM) with Pseudomonas aeruginosa [7]; 4 µg/mL (≈ 12.6 µM) with Pseudomonas aeruginosa [8]; 256 µg/mL (≈ 809 µM) in the assay with Acinetobacter baumannii.
Consider `N#CCc1cc2c(cc1F)c(=O)c(C(=O)O)cn2CC1CCC1`, for which the MIC amounted to 128 µg/mL (≈ 407 µM) in the assay on Staphylococcus aureus [1]; 64 µg/mL (≈ 204 µM) in the assay with Staphylococcus aureus [2]; 0.5 µg/mL (≈ 1.59 µM) in the assay on Staphylococcus aureus [3]; 256 µg/mL (≈ 814 µM) with Staphylococcus aureus [4]; 32 µg/mL (≈ 102 µM) in the assay on Enterococcus faecalis; 256 µg/mL (≈ 814 µM) with Klebsiella pneumoniae. In addition, the MIC with Escherichia coli [5] turned out to be 128 µg/mL (≈ 407 µM); with Escherichia coli [6] it was 128 µg/mL (≈ 407 µM); with Pseudomonas aeruginosa [7] it was 256 µg/mL (≈ 814 µM); with Pseudomonas aeruginosa [8], 128 µg/mL (≈ 407 µM); in the assay on Acinetobacter baumannii it was 256 µg/mL (≈ 814 µM).
Consider `N#CCc1cc2c(cc1F)c(=O)c(C(=O)O)cn2Cc1c(F)cccc1F`, for which the MIC in the assay with Staphylococcus aureus [1] was 4 µg/mL (≈ 10.7 µM); with Staphylococcus aureus [2], 4 µg/mL (≈ 10.7 µM); in the assay on Staphylococcus aureus [3], 4 µg/mL (≈ 10.7 µM); in the assay on Staphylococcus aureus [4] it was 4 µg/mL (≈ 10.7 µM); with Enterococcus faecalis it was 2 µg/mL (≈ 5.37 µM); with Klebsiella pneumoniae, 8 µg/mL (≈ 21.5 µM). The MIC with Escherichia coli [5] was found to be 32 µg/mL (≈ 86 µM); in the assay with Escherichia coli [6], 2 µg/mL (≈ 5.37 µM); in the assay on Pseudomonas aeruginosa [7], 4 µg/mL (≈ 10.7 µM); in the assay on Pseudomonas aeruginosa [8], 4 µg/mL (≈ 10.7 µM); with Acinetobacter baumannii it was 8 µg/mL (≈ 21.5 µM).
Consider `CCn1cc(C(=O)O)c(=O)c2cc(F)c(CC(=O)O)cc21`, for which the MIC with Staphylococcus aureus [1] turned out to be 64 µg/mL (≈ 218 µM); with Staphylococcus aureus [2], 64 µg/mL (≈ 218 µM); in the assay on Staphylococcus aureus [3], 16 µg/mL (≈ 54.6 µM); in the assay with Staphylococcus aureus [4] it was 32 µg/mL (≈ 109 µM); in the assay on Enterococcus faecalis, 0.5 µg/mL (≈ 1.71 µM); in the assay on Klebsiella pneumoniae it was 1 µg/mL (≈ 3.41 µM). Also, the MIC in the assay with Escherichia coli [5] came out at 8 µg/mL (≈ 27.3 µM); with Escherichia coli [6], 8 µg/mL (≈ 27.3 µM); in the assay on Pseudomonas aeruginosa [7], 8 µg/mL (≈ 27.3 µM); in the assay on Pseudomonas aeruginosa [8] it was 2 µg/mL (≈ 6.82 µM); in the assay with Acinetobacter baumannii it was 16 µg/mL (≈ 54.6 µM).
As for `N#CCc1cc2c(cc1F)c(=O)c(C(=O)O)cn2Cc1cc(F)ccc1F`, the MIC is 256 µg/mL (≈ 688 µM) with Staphylococcus aureus [1]; 4 µg/mL (≈ 10.7 µM) in the assay on Staphylococcus aureus [2]; 256 µg/mL (≈ 688 µM) in the assay with Staphylococcus aureus [3]; 256 µg/mL (≈ 688 µM) in the assay with Staphylococcus aureus [4]; 256 µg/mL (≈ 688 µM) in the assay with Enterococcus faecalis; 16 µg/mL (≈ 43 µM) in the assay on Klebsiella pneumoniae. The MIC with Escherichia coli [5] came out at 256 µg/mL (≈ 688 µM); in the assay on Escherichia coli [6] it was 256 µg/mL (≈ 688 µM); in the assay with Pseudomonas aeruginosa [7], 256 µg/mL (≈ 688 µM); in the assay on Pseudomonas aeruginosa [8] it was 256 µg/mL (≈ 688 µM); in the assay on Acinetobacter baumannii it was 64 µg/mL (≈ 172 µM).
In the case of `N#CCc1cc2c(cc1F)c(=O)c(C(=O)O)cn2CC(=O)N1CCCCC1`, the MIC in the assay with Staphylococcus aureus [1] turned out to be 4 µg/mL (≈ 10.8 µM); with Staphylococcus aureus [2], 128 µg/mL (≈ 345 µM); in the assay on Staphylococcus aureus [3], 16 µg/mL (≈ 43.1 µM); in the assay with Staphylococcus aureus [4], 4 µg/mL (≈ 10.8 µM); in the assay with Enterococcus faecalis, 64 µg/mL (≈ 172 µM); with Klebsiella pneumoniae, 16 µg/mL (≈ 43.1 µM). The MIC with Escherichia coli [5] was determined as 16 µg/mL (≈ 43.1 µM); with Escherichia coli [6], 4 µg/mL (≈ 10.8 µM); in the assay on Pseudomonas aeruginosa [7], 1 µg/mL (≈ 2.69 µM); with Pseudomonas aeruginosa [8], 4 µg/mL (≈ 10.8 µM); with Acinetobacter baumannii it was 64 µg/mL (≈ 172 µM).
For `CCCn1cc(C(=O)O)c(=O)c2cc(F)c(CC#N)cc21`, the minimum inhibitory concentration (MIC) in the assay on Staphylococcus aureus [1] is 1 µg/mL (≈ 3.47 µM); in the assay on Staphylococcus aureus [2], 4 µg/mL (≈ 13.9 µM); in the assay with Staphylococcus aureus [3], 0.25 µg/mL (≈ 0.867 µM); in the assay with Staphylococcus aureus [4], 4 µg/mL (≈ 13.9 µM); in the assay with Enterococcus faecalis, 32 µg/mL (≈ 111 µM); in the assay with Klebsiella pneumoniae, 1 µg/mL (≈ 3.47 µM). The MIC with Escherichia coli [5] worked out at 8 µg/mL (≈ 27.8 µM); with Escherichia coli [6] it was 2 µg/mL (≈ 6.94 µM); in the assay with Pseudomonas aeruginosa [7], 0.5 µg/mL (≈ 1.73 µM); in the assay with Pseudomonas aeruginosa [8], 2 µg/mL (≈ 6.94 µM); in the assay on Acinetobacter baumannii, 32 µg/mL (≈ 111 µM).
Consider `CC(C)=CCn1cc(C(=O)O)c(=O)c2cc(F)c(CC#N)cc21`, for which the MIC in the assay on Staphylococcus aureus [1] was 1 µg/mL (≈ 3.18 µM); in the assay with Staphylococcus aureus [2], 256 µg/mL (≈ 814 µM); with Staphylococcus aureus [3], 0.25 µg/mL (≈ 0.795 µM); with Staphylococcus aureus [4], 16 µg/mL (≈ 50.9 µM); in the assay with Enterococcus faecalis, 128 µg/mL (≈ 407 µM); in the assay with Klebsiella pneumoniae, 0.5 µg/mL (≈ 1.59 µM). In addition, the MIC turned out to be 256 µg/mL (≈ 814 µM) with Escherichia coli [5]; 0.5 µg/mL (≈ 1.59 µM) in the assay with Escherichia coli [6]; 0.5 µg/mL (≈ 1.59 µM) in the assay with Pseudomonas aeruginosa [7]; 2 µg/mL (≈ 6.36 µM) in the assay on Pseudomonas aeruginosa [8]; 256 µg/mL (≈ 814 µM) in the assay with Acinetobacter baumannii.
